Here are results for one compound from patent US20090209460A1, “COMPOSITIONS AND METHODS FOR TREATING OBESITY AND RELATED METABOLIC DISORDERS” (Amylin Pharmaceuticals, Inc., priority 2005, published 2009).

Residues, ends and D or L forms follow the SMILES beside them.

The ED50 is the dose that gives a 50% effect, or the effect in half of the subjects. A high value points to a need for a large dose.

A short description of data set [1]: cumulative weight gain in rats with diet induced obesity (rat DIO), subcutaneous pump for seven days. Type of data set: in vivo. Particulars: subcutaneously continuously by pump for seven days. The protocol:
Both compounds were administered subcutaneously continuously by pump for seven days at the rate and dosage indicated.

The next data set deals with DPP-IV (Homo sapiens, UniProt P27487). Kind of data set: DPP-IV degradation. It counts as in vitro ADME. Particulars: isolated DPP-IV peptidase, 25 mM HEPES buffer, 37 degrees C., 10 mM peptide, read-out: intact after contact with DPP-IV.
For another data set, the system named is NIH/Swiss mice. Kind of data set: acute food intake assay, lean overnight-fasted NIH/Swiss mice, intraperitoneal injection. Particulars: for Activity (percent decrease in cumulative food intake compared to the vehicle), AUC: intraperitoneal, timepoint 120 min. It counts as in vivo, mouse. In a few lines: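 Overnight-fasted lean female NIH/Swiss mice (8-24 weeks, group housed) received vehicle or peptide intraperitoneally at time 0, then pre-weighed standard chow. Food consumed was weighed at 30, 60 and 120 min and expressed as % change versus control.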

A further data set concerns over-night fasted rats. Kind of data set: food intake in over-night fasted rats, given intraperitoneally. Particulars: 0.1 to 1.5 mg/kg, 30 and 60 minutes. Type of data set: in vivo, rat. The protocol:
FN38 in vehicle (10% DMSO in saline) was administered at 0.1 to 1.5 mg/kg. The food intake in grams and as a percent of vehicle are presented in FIGS. 4A and 4B at 30 and 60 minutes, respectively. FIG. 4C presents the same data plotted as grams of food consumed (intake) versus time. The results cannot be attributed to a locomotor effect (data not shown).

Data set [2] in a line: body weight and food intake in mice with diet induced obesity (mouse DIO), osmotic pump. Particulars: mouse DIO. It counts as in vivo. In a few lines:
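Male C57BL/6 mice, 4 weeks old at start, were fed a 58% kcal-fat diet for 4 weeks. Interscapular osmotic pumps then delivered peptide continuously at the indicated dose, or vehicle (50% DMSO in water or saline). Body weight and food intake were recorded weekly.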

Data set [3] in a line: brush border membrane (BBM) stability assay. It counts as in vitro ADME, human. In a few lines:
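Peptides digested up to 5 h at 37 °C with human brush border membrane extract (e.g. kidney). Timepoints quenched with 50% ACN, 1% FA, centrifuged, intact peptide quantified by selected-ion mass spectrometry. Expressed as percent stable.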

Sequence of DPP-IV (P27487 whole entry, species assumed): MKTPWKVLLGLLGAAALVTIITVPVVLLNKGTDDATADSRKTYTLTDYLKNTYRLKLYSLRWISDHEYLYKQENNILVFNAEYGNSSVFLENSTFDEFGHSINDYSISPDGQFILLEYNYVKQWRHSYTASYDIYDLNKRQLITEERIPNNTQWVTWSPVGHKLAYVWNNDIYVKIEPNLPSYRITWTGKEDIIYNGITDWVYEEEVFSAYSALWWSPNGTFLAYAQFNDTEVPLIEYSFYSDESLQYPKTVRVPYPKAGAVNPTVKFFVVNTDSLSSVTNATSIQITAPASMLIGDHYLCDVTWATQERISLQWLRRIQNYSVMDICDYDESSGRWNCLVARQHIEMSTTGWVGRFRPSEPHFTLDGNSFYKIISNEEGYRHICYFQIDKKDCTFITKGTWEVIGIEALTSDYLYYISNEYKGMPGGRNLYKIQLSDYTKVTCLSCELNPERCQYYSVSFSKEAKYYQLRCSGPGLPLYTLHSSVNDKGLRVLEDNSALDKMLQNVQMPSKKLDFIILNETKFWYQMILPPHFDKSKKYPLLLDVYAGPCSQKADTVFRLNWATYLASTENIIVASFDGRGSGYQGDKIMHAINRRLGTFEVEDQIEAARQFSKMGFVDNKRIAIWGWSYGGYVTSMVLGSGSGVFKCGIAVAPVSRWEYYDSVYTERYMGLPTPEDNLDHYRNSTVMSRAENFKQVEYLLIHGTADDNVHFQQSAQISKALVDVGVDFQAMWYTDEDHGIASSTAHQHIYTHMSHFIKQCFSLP
Protocol for DPP-IV: Peptide and peptidase were incubated in 25 mM HEPES buffer at 37 degrees C. at 10 mM peptide.

Take `CC(C)C[C@H](NC(=O)[C@H](CCCCN)NC(=O)[C@H](CCC(N)=O)NC(=O)[C@@H](NC(=O)[C@H](CCCCN)NC(=O)[C@H](CO)NC(=O)[C@H](Cc1ccc(O)cc1)NC(=O)[C@H](Cc1c[nH]cn1)NC(=O)[C@H](Cc1ccccc1)NC(=O)[C@H](CC(C)C)NC(=O)[C@@H](N)Cc1ccccc1)[C@@H](C)O)C(=O)NCC(=O)N[C@@H](CCCCN)C(=O)N[C@@H](CO)C(=O)N[C@@H](CC(N)=O)C(=O)N[C@H](C(=O)N[C@H](C(=O)N[C@@H](CCC(=O)O)C(=O)N[C@@H](CCC(=O)O)C(=O)N[C@@H](CC(C)C)C(=O)N[C@@H](CCC(N)=O)C(=O)N[C@@H](CO)C(=O)N1CCC[C@H]1C(=O)N[C@@H](Cc1ccccc1)C(=O)N[C@@H](C)C(=O)N[C@@H](CO)C(=O)N[C@@H](CCC(N)=O)C(=O)N[C@@H](CO)C(=O)N[C@@H](CCCNC(=N)N)C(=O)NCC(=O)N[C@@H](Cc1ccc(O)cc1)C(=O)N[C@@H](Cc1ccccc1)C(=O)N[C@@H](CC(C)C)C(=O)N[C@@H](Cc1ccccc1)C(=O)N[C@@H](CCCNC(=N)N)C(=O)N1CCC[C@H]1C(=O)N[C@@H](CCCNC(=N)N)C(=O)N[C@@H](CC(N)=O)C(N)=O)C(C)C)C(C)C` [Compound 163661] (H-FLFHYSKTQKLGKSNVVEELQSPFASQSRGYFLFRPRN-NH2; N-terminus assumed): the “cumulative weight gained in rat DIO (FIG. 5)” value in data set [1] is “reduction of cumulative weight gained”. Also, the remaining at 50 min, 10 mM on DPP-IV was ~100%. Besides, in the data set on NIH/Swiss mice (administered systemically (i.p. to mice), dose and time not stated), the “reduction of food intake” value amounted to 64%. In the data set with NIH/Swiss mice (food intake, % change relative to control, 60 min, dose 200), the “FI (60′, 200)” value was 0%. In addition, the median effective dose (ED50) at t = 60 in the data set on NIH/Swiss mice (food intake, t = 60) is given as 4 nmol/kg. In addition, the “Activity (percent decrease in cumulative food intake compared to the vehicle), AUC” value is recorded as 0% with NIH/Swiss mice (dose 0.3 nmol/kg); −23% in the data set with NIH/Swiss mice (dose 1 nmol/kg); −25% in the data set with NIH/Swiss mice (dose 3 nmol/kg); −48% in the data set on NIH/Swiss mice (dose 10 nmol/kg); −58% with NIH/Swiss mice (dose 30 nmol/kg); −72% in the data set on NIH/Swiss mice (dose 100 nmol/kg). The “Activity (percent decrease in cumulative food intake compared to the vehicle), AUC” value with NIH/Swiss mice (dose 300 nmol/kg) was −60%; in the data set on NIH/Swiss mice (dose 1000 ug/kg), −46%. Further, the “Food Intake Inhibition” value in the data set on NIH/Swiss mice (mouse assay, dose of 200 mg/kg, measured at 60 minutes) was −46%. Moreover, in the data set with NIH/Swiss mice (over 30 min, i.p., mice), the “ED50 for effect on food intake” value turned out to be 8.6 nmol/kg. The “effect on food intake in over-night fasted rats” value in the data set on over-night fasted rats is listed as “inhibiting food intake”. In addition, in data set [2] (day 2), the “d 2 BWt loss” value amounted to 6.5%. In addition, the “d 7 BWt loss” value in data set [2] (day 7) was 4.3%. The remaining at 5 h in data set [3] (brush border membrane extract (e.g. kidney), percent compound remaining after a 5 hour incubation, human brush border membrane assay, read-out: hBBM) came to 62%. This compound displayed a BBM in data set [3] (percent of stable, human brush border membrane extracts, five hours, 37° C.) of 62%.
